Source: US11390631B1, “Benzodiazepine derivatives as RSV inhibitors” (priority 2015, dated 2022)
Where two headings read alike, the source gives them in different places.

How the values were obtained:
[1] = tested on: Human RSV-A (“Long” strain); test: RSV-A assay: inhibition of cytopathic effect in Hep-2 cells, ATPlite readout; assay type: cell-based, Human respiratory syncytial virus (HRSV); conditions: human respiratory syncytial virus, read-out: Human RSV-A (“Long” strain) EC50
Procedure, shortened: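 Hep-2 cells (8,000/well) were infected with RSV-A Long at MOI 0.1 alongside duplicate 2-fold compound dilutions. After 5 days, cell viability was read by ATPlite luminescence to give EC50. CC50 came from a parallel plate without virus.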

[2] = Cytotoxicity on parallel plate without virus, ATPlite readout; assay type: cell-based; conditions: human, Hep-2 cells (no virus), Hep-2 cells without virus, 5-day incubation
Method: Following extensive parameter testing, the final assay is run as follows: Hep-2 cells are seeded into the inner 60 wells of a 96-well plate at 8,000 cells per well in a volume of 50 μL using Growth Media (DMEM without phenol red, 1% L-Glut, 1% Penn/Strep, 1% nonessential amino acids, 10% heat-inactivated FBS). 2-fold serial dilutions of control and test compounds are added to the wells in duplicate in a total volume of 25 μL. Viral stock is then added to the wells at a multiplicity of infection (MOI) of 0.1 in a volume of 25 μL, bringing the total volume of each well to 100 μL. The MOI is calculated using the PFU/mL, or TCID50 if unavailable. Each 96-well plate has a control column of 6 wells with cells and virus but no compound (negative control, max CPE), a column with cells but no compound or virus (positive control, minimum CPE), and a column with no cells or virus or compound (background plate/reagent control). The control wells with cells but no virus are given an additional 25 uL of growth media containing an equal quantity of sucrose as those wells receiving the viral stock in order to keep consistent in media and volume conditions. The outer wells of the plate are filled with 125 μL of moat media (DMEM, 1% Penn/Strep) to act as a thermal and evaporative moat around the test wells. Following a 5-day incubation period, the plates are read using ATPlite (50 uL added per well), which quantifies the amount of ATP (a measure of cell health) present in each well. Assay plates are read using the Envision luminometer. In parallel, cytotoxicity is examined on an additional 96-well plate treated in an identical manner, but substituting the 25 μL of viral stock for 25 μL of growth media. […] EC50 ranges are as follows: A<0.4 μM; B 0.4-0.8 μM; C>0.8 μM and CC50 ranges are as follows: A>50 μM; B 10-50 μM; C<10 μM.

[3] = tested on: RSV-B, genotype B, strain 9320; test: RSV-B assay: A549 cells infected with RSV-B, qPCR or ATPlite readout; assay type: cell-based, Human respiratory syncytial virus (HRSV); conditions: human respiratory syncytial virus
Excerpt: Hep-2 cells, (originally derived from tumors grown in irradiated-cortisonised weanling rats that had been injected with epidermoid carcinoma tissue from a person's larynx, but later found to be indistinguishable from HeLa cells by PCR DNA analysis), were used for the culturing of genotype B, strain 9320. Flasks were inoculated with RSV-B and viral stocks were collected once cytopathic effect (CPE) was greater than […]. Viral stocks in 25% o sucrose media were snap frozen using liquid nitrogen to increase viral stability. Viral stock titers were quantified by tissue culture infectious dose 50% o (TCID50) using 8,000 cells per well and 5-fold viral dilutions across a 96-well plate, cultured for 4 days. Viral stock titers were also quantified by a plaque forming unit assay, as described elsewhere.
The assay is run as follows: A549 cells (originally derived through explant culture from a person's carcinomatous lung tissue) are seeded into the inner 60 wells of a 96-well plate at 3,000 cells per well in a volume of 50 μL using A549 growth media (F-12K Media, 1% Penn/Strep, 1% nonessential amino acids, 10% heat-inactivated FBS). 2-fold serial dilutions of control and test compounds are added to the wells in duplicate in a total volume of 25 μL. Viral stock is then added to the wells at a multiplicity of infection (MOI) of 0.5 in a volume of 25 μL, bringing the total volume of each well to 100 μL. The MOI is calculated using the PFU/mL, or TCID50 if unavailable. Each 96-well plate has a control column of 6 wells with cells and virus but no compound (negative control, max CPE), a column with cells but no compound or virus (positive control, minimum CPE), and a column with no cells or virus or compound (background plate/reagent control). The control wells with cells but no virus are given an additional 25 uL of growth media containing an equal quantity of sucrose as those wells receiving the viral stock in order to keep consistent in media and volume conditions. The outer wells of the plate are filled with 125 μL of moat media (DMEM, 1% Penn/Strep) to act as a thermal and evaporative moat around the test wells. 6 days post infection, the plates are read using qPCR or ATP lite (50 uL added per well), which quantifies the amount of ATP (a measure of cell health) present in each well. Assay plates treated with APTlite are read using the Envision luminometer. […] EC50 ranges are as follows: A<0.4 μM; B 0.4-0.8 μM; C>0.8 μM.

[4] = A549, read-out: Human RSV-B EC50

SMILES | EC50 ([1]; HEp-2, 120 h) | CC50 at 5 days [2] | EC50 [3, 4] | EC50 ([1]; 120 h, Hep-2 cells, MOI 0.1, 5-day incubation, ATPlite) | EC50 ([3]; A549 cells infected with RSV-B strain 9320, MOI 0.5, read-out: Human RSV-B EC50)
O=C1Nc2ccccc2C(c2ccccc2)=NC1Nc1nc(-c2ccccc2)ns1 (centres unmarked) [Example 87] | > 800 nM | 10000 to 50000 nM | – | – | –
O=C1Nc2ccccc2C(c2ccccc2)=NC1Nc1nc(N2CCOCC2)ns1 (centres unmarked) [Example 88] | > 800 nM | 10000 to 50000 nM | – | – | –
O=C1Nc2ccccc2C(c2ccccc2)=NC1Nc1nc(-c2ccccc2)no1 (centres unmarked) [Example 89] | > 800 nM | 10000 to 50000 nM | – | – | –
O=C1Nc2ccccc2C(c2ccccc2)=NC1Nc1nc(-c2ccccc2)cs1 (centres unmarked) [Example 90] | > 800 nM | < 10000 nM | – | – | –
O=C1Nc2ccccc2C(c2ccccc2)=NC1Nc1cc(-c2ccccc2)ncn1 (centres unmarked) [Example 92] | > 800 nM | 10000 to 50000 nM | – | – | –
O=C1Nc2ccccc2C(c2ccccc2)=NC1Nc1cc(N2CCOCC2)ncn1 (centres unmarked) [Example 93] | > 800 nM | 10000 to 50000 nM | – | – | –
O=C1Nc2ccccc2C(c2ccccc2)=NC1Nc1cc(Oc2ccccc2)ncn1 (centres unmarked) [Example 94] | > 800 nM | 10000 to 50000 nM | – | – | –
O=C1Nc2ccccc2C(c2ccccc2)=NC1Nc1ccc(-c2ccccc2)nn1 (centres unmarked) [Example 95] | 400 to 800 nM | – | > 800 nM | – | –
O=C1Nc2ccccc2C(c2ccccc2)=NC1Nc1ccnc(-c2ccccc2)n1 (centres unmarked) [Example 96] | > 800 nM | 10000 to 50000 nM | – | – | –
O=C1Nc2ccccc2C(c2ccccc2)=NC1Nc1cccn(Cc2ccccc2)c1=O (centres unmarked) [Example 97] | > 800 nM | > 50000 nM | – | – | –
O=C1Nc2ccccc2C(c2ccccc2)=NC1Nc1nc2ccc(Cl)cc2o1 (centres unmarked) [Example 99] | > 800 nM | 10000 to 50000 nM | – | – | –
O=C1Nc2ccccc2C(c2ccccc2)=NC1Nc1nc2ccccc2o1 (centres unmarked) [Example 100] | > 800 nM | 10000 to 50000 nM | – | – | –
O=C1Nc2ccccc2C(c2ccccc2)=NC1Nc1nc2ccccc2s1 (centres unmarked) [Example 101] | > 800 nM | 10000 to 50000 nM | – | – | –
O=C1Nc2ccccc2C(c2ccccc2)=NC1Nc1nc2ccc(F)cc2o1 (centres unmarked) [Example 103] | > 800 nM | 10000 to 50000 nM | – | – | –
O=C1Nc2ccccc2C(c2ccccc2)=NC1Nc1nc2cc(F)ccc2o1 (centres unmarked) [Example 104] | > 800 nM | 10000 to 50000 nM | – | – | –
O=C1Nc2ccccc2C(c2ccccc2)=NC1Nc1nc2c(F)cccc2o1 (centres unmarked) [Example 105] | > 800 nM | > 50000 nM | – | – | –
Cc1ccc2oc(NC3N=C(c4ccccc4)c4ccccc4NC3=O)nc2c1 (centres unmarked) [Example 106] | > 800 nM | < 10000 nM | – | – | –
CN(C)c1ccc(-c2nnc(NC3N=C(c4ccccc4)c4ccccc4NC3=O)o2)nc1 (centres unmarked) [Example 108] | > 800 nM | – | > 800 nM | – | –
O=C1Nc2ccccc2C(c2ccccc2)=NC1Nc1nnc(-c2cccnc2N2CCOCC2)o1 (centres unmarked) [Example 120] | < 400 nM | – | 400 to 800 nM | – | –

SMILES | EC50 ([1]; HEp-2, 120 h) | CC50 at 5 days [2] | EC50 [3, 4] | EC50 ([1]; 120 h, Hep-2 cells, MOI 0.1, 5-day incubation, ATPlite) | EC50 ([3]; A549 cells infected with RSV-B strain 9320, MOI 0.5, read-out: Human RSV-B EC50)
O=C1Nc2ccccc2C(c2ccccc2)=NC1Nc1nnc(-c2ccc(C(F)(F)F)cc2N2CCOCC2)o1 (centres unmarked) [Example 123] | < 400 nM | – | 400 to 800 nM | – | –
O=C1Nc2ccccc2C(c2ccccc2)=NC1Nc1nnc(-c2ccc(N3CCOCC3)cc2)o1 (centres unmarked) [Example 124] | – | – | < 400 nM | – | –
O=C1Nc2ccccc2C(c2ccccc2)=NC1Nc1nnc(-c2ccccc2N2CCOCC2)o1 (centres unmarked) [Example 125] | – | – | 400 to 800 nM | – | –
O=C1Nc2ccccc2C(c2ccccc2)=NC1Nc1nnc(-c2ccc(F)cc2N2CCOCC2)o1 (centres unmarked) [Example 127] | < 400 nM | – | < 400 nM | – | –
O=C1Nc2ccccc2C(c2ccccc2)=NC1Nc1nnc(-c2ccc(-n3cccn3)cc2N2CCOCC2)o1 (centres unmarked) [Example 129] | < 400 nM | – | < 400 nM | – | –
N#Cc1ccc(-c2nnc(NC3N=C(c4ccccc4)c4ccccc4NC3=O)o2)c(N2CCOCC2)c1 (centres unmarked) [Example 131] | < 400 nM | – | < 400 nM | – | –
O=C1Nc2ccccc2C(c2ccccc2)=N[C@@H]1Nc1nnc(-c2ncc(F)cc2N2CCOCC2)o1 [Example 136, (S)-3-((5-(5-fluoro-3-morpholinopyridin-2-yl)-1,3,4-oxadiazol-2-yl)amino)-5-phenyl-1,3-dihydro-2H-benzo[e][1,4]diazepin-2-one] | < 400 nM | – | < 400 nM | – | –
O=C1Nc2ccccc2C(c2ccccc2)=NC1Nc1nnc(-c2ncc(C(F)(F)F)cc2N2CCOCC2)o1 (centres unmarked) [Example 139] | – | – | – | < 400 nM | < 400 nM
Cc1ccc(-c2nnc(NC3N=C(c4ccccc4)c4ccccc4NC3=O)o2)c(N2CCOCC2)n1 (centres unmarked) [Example 144] | < 400 nM | – | < 400 nM | – | –
N#Cc1ccc(-c2nnc(N[C@H]3N=C(c4ccccc4)c4ccccc4NC3=O)o2)c(N2CCOCC2)n1 [Example 153] | < 400 nM | – | < 400 nM | – | –
Cn1c(N2CCOCC2)c(-c2nnc(N[C@H]3N=C(c4ccccc4)c4ccccc4NC3=O)o2)ccc1=O [Example 155] | < 400 nM | – | < 400 nM | – | –
Cc1nc(N2CCOCC2)c(-c2nnc(N[C@H]3N=C(c4ccccc4)c4ccccc4NC3=O)o2)cc1C#N [Example 158] | < 400 nM | – | < 400 nM | – | –
N#Cc1cnc(-c2nnc(N[C@H]3N=C(c4ccccc4)c4ccccc4NC3=O)o2)c(N2CCOCC2)c1 [Example 160] | – | – | < 400 nM | – | –
O=C1Nc2ccccc2C(c2ccccc2)=N[C@@H]1Nc1nnc(-c2ncc(Br)cc2N2CCOCC2)o1 [Example 168] | < 400 nM | – | < 400 nM | – | –
O=C1Nc2ccccc2C(c2ccccc2)=N[C@@H]1Nc1nnc(-c2ncc(C3CC3)cc2N2CCOCC2)o1 [Example 169] | < 400 nM | – | < 400 nM | – | –
N#Cc1cc(-c2nnc(N[C@H]3N=C(c4ccccc4)c4ccccc4NC3=O)o2)c(N2CCOCC2)nc1C1CC1 [Example 175] | < 400 nM | – | 400 to 800 nM | – | –
O=C1Nc2ccccc2C(c2ccccc2)=N[C@@H]1Nc1nnc(-c2oc3ccccc3c2N2CCOCC2)o1 [Example 179] | < 400 nM | – | < 400 nM | – | –
CN1CCN(c2ccccc2-c2nnc(NC3N=C(c4ccccc4)c4ccccc4NC3=O)o2)CC1 (centres unmarked) [Example 224] | > 800 nM | – | < 400 nM | – | –
